Measurements as given in patent US20240261375A1, “PHARMACEUTICAL COMPOSITION FOR TREATING OR PREVENTING DISORDER ASSOCIATED WITH ADMINISTRATION OF ANTICANCER AGENT” (LTT BIO-PHARMA CO., LTD., priority 2021, published 2024).

Tests used:
[1] = system: peripheral blood cells of CIS-treated rats; assay: Assessment of myelosuppression caused by cisplatin (peripheral blood cell count); type: in vivo, rat; conditions: CIS 3 mg/kg i.p. 8 doses, PC-SOD 1 mg/kg caudal vein, FIG. 14
Method: Six to eight-week-old male SD rats (from 200 to 400 g) were used. […] A total of eight doses were given with a regimen of twice weekly for four weeks (Days 1, 2, 7, 8, 13, 14, 19, and 20). A solvent for CIS, i.e., physiological saline, was similarly administered to a control group. […] Laboratory animals were divided into three groups: a control group, a CIS administration group, and a group receiving administration of CIS and PC-SOD 1 mg/kg (CIS+PC-SOD administration group) (n=6 per group). For an experiment of prevention, PC-SOD was administered into the caudal vein from five to 15 minutes after CIS administration in the CIS+PC-SOD administration group. A total of eight doses were given with a regimen of twice weekly for four weeks, (Days 1, 2, 7, 8, 13, 14, 19, and 20). A solvent for PC-SOD was similarly administered to the control group and the CIS administration group. Peripheral blood was collected from the rat caudal vein three days later, and peripheral blood was analyzed by using an automated blood cell counter (MEK-6458, Nihon Kohden Corporation).

[2] = system: kidney of CIS-treated rats; assay: Assessment of kidney disorder caused by cisplatin in rats; type: in vivo, rat; conditions: CIS 3 mg/kg i.p. 8 doses
Method: Six to eight-week-old male SD rats (from 200 to 400 g) were used. […] A total of eight doses were given with a regimen of twice weekly for four weeks (Days 1, 2, 7, 8, 13, 14, 19, and 20). A solvent for CIS, i.e., physiological saline, was similarly administered to a control group. […] Laboratory animals were divided into three groups: a control group, a CIS administration group, and a group receiving administration of CIS and PC-SOD 1 mg/kg (CIS+PC-SOD administration group) (n=6 per group).
For an experiment of prevention, PC-SOD was administered into the caudal vein from five to 15 minutes after CIS administration in the CIS+PC-SOD administration group. A total of eight doses were given with a regimen of twice weekly for four weeks (Days 1, 2, 7, 8, 13, 14, 19, and 20). A solvent for PC-SOD was similarly administered to the control group and the CIS administration group. The rat kidney weight was measured, and changes in the kidney weight were corrected with body weight. Further, a photograph of the kidney was taken to check changes in size and morphology of the kidney (Scale bar=10 mm).
For pathological analysis, a split was put in the sagittal plane of the collected kidney, and the kidney was fixed with 10% formalin to prepare a paraffin block by using Histos 5 (Milestone) and an embedding center (EG1160, Leica). The sample block was thinly sliced by using a microtome (MR2245, Leica) at a thickness of 3 μm to prepare a slide. The prepared slide was subjected to Periodic acid-Schiff (PAS) staining for assessment of clinical condition and Picrosirius Red staining for assessment of fibrosis. A fibrosis marker α-SMA was stained by an immunostaining method. […] Observation and assessment were performed by observing the whole section. Four to nine images of tissue on the cortical side on which the disorder was induced were randomly taken up, and inflammation, tubular necrosis, protein agglutination in renal tubules, vacuolation, and necrosis were assessed for changes in clinical condition. […] (Scale bar=500 μm (FIG. 11-1), Scale bar=200 μm (FIGS. 11-2 and 11-3)).

[3] = system: oxaliplatin-induced allodynia model rats; assay: Von Frey test in oxaliplatin-induced allodynia model rats; type: in vivo, rat; conditions: OXA 4 mg/kg i.p. 8 doses, prophylactic, FIG. 1
Method: Six to eight-week-old male SD rats (from 200 to 400 g) were used, and oxaliplatin (hereinafter may be abbreviated as OXA) was administered into the peritoneal cavity of rats at a dose of 4 mg/kg. A total of eight doses were given with a regimen of twice weekly for four weeks (Days 1, 2, 7, 8, 13, 14, 19, and 20). A solvent for OXA, i.e., a 5% glucose solution, was similarly administered to a control group. Elplat I.V. Infusion Solution 100 mg (Yakult Honsha Co., Ltd.) was used as OXA.
Laboratory animals were divided into five groups: a control group, an OXA administration group, and groups each receiving administration of OXA and PC-SOD 0.1, 0.3, or 1 mg/kg (OXA+PC-SOD administration groups) (n=8 per group). In an experiment of prevention, PC-SOD was administered into the caudal vein from 5 to 15 minutes after administration of OXA in the OXA+PC-SOD administration group. […]
Data were expressed with mean±standard error (SEM). Statistical processing of the results was performed by Student's t test for comparison of two groups and ANOVA one way test (post-hoc Tukey's test) for comparison of three or more groups, and a statistically significant difference was determined when the hazard ratio was 5% or lower (*, **, and *** in the figures: p<0.05, p<0.01, and p<0.001, respectively).

RAW cells = assay: Active oxygen production in RAW cells (MitoSOX Red); type: cell-based; conditions: gemcitabine, oxaliplatin, cisplatin or carboplatin with simultaneous PC-SOD, 16 hours; FIG. 13-2
Method: RAW cells were seeded on a 96-well plate for fluorescence at 20 000 cells/well (D-MEM high glucose medium containing 10% inactivated FBS). […] Sixteen hours later, cells were treated with an HBSS solution containing dissolved MitoSOX™ Red Mitochondrial Superoxide Indicator (Invitrogen™) for 30 minutes, and the medium was replaced with D-MEM high glucose medium containing 1% inactivated FBS. Active oxygen production in mitochondria was determined by measuring fluorescence (Ex 510 nm, Em 580 nm) by using a plate reader (Infinite M Plex, Tecan). Cells for four wells were analyzed for each group.

lecithinized superoxide dismutase [PC-SOD]
decrease in platelets (PLTs) caused by CIS [1]: decreases in WBCs and PLTs were suppressed
decrease in white blood cells (WBCs) caused by CIS [1]: decreases in WBCs and PLTs were suppressed
increase in kidney weight and swelling of the kidney caused by CIS ([2]; PC-SOD 1 mg/kg caudal vein, FIG. 10-1, 10-2): the suppressive effect on an increase in the kidney weight and swelling of the kidney caused by CIS was confirmed
pathological damage to the kidney caused by CIS (PAS staining) ([2]; PC-SOD 1 mg/kg, FIG. 11-1): a suppressive effect on pathological damage to the kidney caused by CIS was observed
renal fibrosis caused by CIS (Picrosirius Red and α-SMA staining) ([2]; PC-SOD 1 mg/kg, FIG. 11-2, 11-3): decreases of fibrosis-positive regions in the kidney caused by CIS were detected
decrease in pain sensation threshold caused by OXA (von Frey test) ([3]; PC-SOD 1 mg/kg caudal vein): significantly suppressed
decrease in pain sensation threshold caused by OXA (von Frey test) ([3]; PC-SOD 0.1, 0.3 and 1 mg/kg caudal vein): suppressed by PC-SOD in a concentration-dependent manner
anticancer agent-dependent production of active oxygen in RAW cells (RAW cells): significantly suppressed the anticancer agent-dependent production of active oxygen dependently on the concentration of PC-SOD
